The values below come from patent US20240158341A1, “COMPOUND, MANUFACTURING METHOD THEREFOR, ANTIMICROBIAL AGENT, AND MEDICINAL DRUG” (Murata Manufacturing Co., Ltd., priority 2021, published 2024).

The subject of one assay is Bacillus subtilis. The assay can be described thus: Paper disc antimicrobial test. Format: cell-based. To be noted: 10 μg/6 mm disc. On the procedure:
(§1) An antimicrobial test against the following bacteria and fungi was performed using a paper disc (6 mm, manufactured by ADVANTEC) containing the compound (1a-1).
(§2) (1) Gram-Positive Bacteria • Mycobacterium smegmatis • Bacillus subtilis • Staphylococcus aureus • Micrococcus luteus
(§3) An antimicrobial test was performed with a 10 μg/6 mm disc, using the culture solution of the above bacteria and fungi. The test was conducted in accordance with the method described in Koyama et al., Calpinactam, a new anti-mycobacterial agent, produced by Mortierella alpina FKI-4905, The Journal of Antibiotics (2010) 63, pages 183 to 186.

The next assay deals with Micrococcus luteus. The assay can be described thus: Paper disc antimicrobial test. The format is cell-based. To be noted: 10 μg/6 mm disc. On the procedure:
as §1, §2, §3

For the next assay, the system named is Mycobacterium smegmatis. Kind of assay: Paper disc antimicrobial test. The format is cell-based. To be noted: 10 μg/6 mm disc. On the procedure:
as §1, §2, §3

The test system of the next assay is Staphylococcus aureus. Kind of assay: Paper disc antimicrobial test. The format is cell-based. The note with it: 10 μg/6 mm disc. The protocol: as §1, §2, §3
The subject of a further assay is Candida albicans. The assay can be described thus: Paper disc antimicrobial test. To be noted: 10 μg/6 mm disc. Format: cell-based. The protocol: as §1
(§4) (3) Yeast • Candida albicans
as §3

Assay [1] concerns gram-positive bacteria. Kind of assay: Paper disc antimicrobial test, summary for gram-positive bacteria. To be noted: against gram-positive bacteria. Format: cell-based. On the procedure: as §1, §2, §3
A further assay has as its system yeasts. Kind of assay: Paper disc antimicrobial test, summary for yeasts. Format: cell-based. To be noted: against yeasts. On the procedure: as §1, §4, §3
Assay [2] concerns gram-positive bacteria. To be noted: against gram-positive bacteria; Non-Patent Literature 1; cited from earlier work.

For the compound `[C-]#[N+][C@@H](Cc1ccc(O)c(-c2cc(C[C@H](NN)C(N)=O)ccc2O)c1)C(N)=O` [compound (1a-1)], the Inhibitory zone amounted to 14 mm in the assay with Bacillus subtilis; 26 mm with Micrococcus luteus; 19 mm with Mycobacterium smegmatis; 23 mm in the assay on Staphylococcus aureus; 20 mm with Candida albicans. The antimicrobial action entry in the assay on gram-positive bacteria [1] and in the assay on yeasts was “showed an antimicrobial action” in each case.
Take hazimycin A: the antimicrobial activity entry with gram-positive bacteria [2] is recorded as “had an antimicrobial activity”.
